Experimental findings from patent publication US8476298B2 (Exelixis, Inc., priority 2003, dated 2013) are described below.

Read-outs that look alike come from different tables or passages of the source.

Assay [1] has as its target T1, KDR (baculovirus expressed human KDR kinase domain D807-V1356) (Homo sapiens, UniProt P35968).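 Note: Luciferase-coupled chemiluminescent kinase assay, activity read as percent ATP left after 4 h reaction at ambient temperature, ATP near KM, 10-point dose-response in 384-well plates.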
T1 construct: human KDR kinase domain D807-V1356; host or cells: baculovirus expression
Nature of the assay: biochemical.
Procedure: (§1) Kinase activity and compound inhibition are investigated using one or more of the three assay formats described below. The ATP concentrations for each assay are selected to be close to the Michaelis-Menten constant (KM) for each individual kinase. Dose-response experiments are performed at 10 different inhibitor concentrations in a 384-well plate format.
KDR biochemical activity was assessed using a Luciferase-Coupled Chemiluminescent Kinase assay (LCCA) format. Kinase activity was measured as the percent ATP remaining following the kinase reaction. Remaining ATP was detected by luciferase-luciferin-coupled chemiluminescence. […] The mixture is incubated at ambient temperature for 4 hours after which 20 uL luciferase-luciferin mix is added and the chemiluminescent signal read using a Wallac Victor^2 reader.

Assay [2] deals with c-Kit kinase (Homo sapiens, UniProt P10721). Put plainly: c-Kit AlphaScreen kinase assay.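 Note: c-Kit kinase phosphorylating biotinylated poly(Glu,Tyr), ATP near its KM, 1 h reaction at ambient temperature, AlphaScreen chemiluminescence with streptavidin donor and anti-phosphotyrosine acceptor beads, 10-point inhibitor titration.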 The format is biochemical. In general terms: Bead proximity is the source of the signal in Alpha formats.
Procedure: as §1
AlphaScreen™ (Perkin Elmer) technology is a proximity assay employing microparticles. Singlet oxygen derived from a donor bead following laser excitation results in chemiluminescence when in proximity (100 Å) to an acceptor bead due to biomolecular interactions.
c-Kit biochemical activity was assessed using AlphaScreen™ (Perkin Elmer) technology, described above. Test compounds, ATP, biotinylated poly(Glu, Tyr) and c-Kit kinase were combined in a volume of 20 μL in a 384-well white, medium binding microtiter plate (Greiner). Reaction mixtures were incubated for 1 hr at ambient temperature. […] After 16 hr incubation at ambient temperature plates were read using an AlphaQuest reader (Perkin Elmer).
Assay [3] addresses T2, Flt-3 (baculovirus expressed human Flt-3 kinase domain R571-S993) (Homo sapiens, UniProt P36888).
T2 construct: human Flt-3 kinase domain R571-S993; host or cells: baculovirus expression
T2 sequence (P36888 571-993): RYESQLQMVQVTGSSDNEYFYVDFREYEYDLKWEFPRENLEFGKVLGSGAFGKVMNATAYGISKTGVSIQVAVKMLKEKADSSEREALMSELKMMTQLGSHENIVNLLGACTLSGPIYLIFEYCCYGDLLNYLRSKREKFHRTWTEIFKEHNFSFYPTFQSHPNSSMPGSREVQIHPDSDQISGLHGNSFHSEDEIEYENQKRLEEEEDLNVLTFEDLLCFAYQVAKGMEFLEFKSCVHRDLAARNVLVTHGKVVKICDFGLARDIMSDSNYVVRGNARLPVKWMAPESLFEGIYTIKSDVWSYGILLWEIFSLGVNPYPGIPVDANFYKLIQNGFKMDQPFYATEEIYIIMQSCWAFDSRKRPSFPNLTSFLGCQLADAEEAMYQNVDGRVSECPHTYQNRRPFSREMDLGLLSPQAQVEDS
Put plainly: biochemical. To be noted: read-out: flt3 IC50.

Assay [4] has as its target T3, c-Met (baculovirus expressed human c-Met kinase domain P948-S1343) (Homo sapiens, UniProt P08581).
T3 construct: human c-Met kinase domain P948-S1343; host or cells: baculovirus expression
Nature of the assay: c-Met Luciferase-Coupled Chemiluminescent Kinase assay (LCCA).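 Note: kinase activity read as percent ATP left after reaction, by luciferase-luciferin chemiluminescence, with 1 µM ATP and 1 µM poly-EY substrate, 2 h at ambient temperature, 10-point dose-response.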 The format is biochemical.

The target in assay [5] is T4, Flt-4 (baculovirus expressed human Flt-4 kinase domain D725-R1298) (Homo sapiens, UniProt P35916).
T4 construct: human Flt-4 kinase domain D725-R1298; host or cells: baculovirus expression
Put plainly: flt-4 Alphascreen Tyrosine Kinase assay.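 Note: AlphaScreen chemiluminescence read-out of biotinylated poly(Glu,Tyr) 4:1 phosphorylation via streptavidin donor and PY100 anti-phosphotyrosine acceptor beads, ATP near KM, 1 hr kinase reaction, 10-point dose-response.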 The format is biochemical. To be noted: read-out: flt4 IC50.

Where [6] appears, read: Table 4, inhibition as IC50 class.
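Throughout, for flt3 IC50: Luciferase-coupled chemiluminescent kinase assay, activity read as percent ATP left after a 3 h reaction at room temperature, ATP near KM, 10-point dose-response.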

T4 sequence (P35916 725-1298 isoform P35916-1): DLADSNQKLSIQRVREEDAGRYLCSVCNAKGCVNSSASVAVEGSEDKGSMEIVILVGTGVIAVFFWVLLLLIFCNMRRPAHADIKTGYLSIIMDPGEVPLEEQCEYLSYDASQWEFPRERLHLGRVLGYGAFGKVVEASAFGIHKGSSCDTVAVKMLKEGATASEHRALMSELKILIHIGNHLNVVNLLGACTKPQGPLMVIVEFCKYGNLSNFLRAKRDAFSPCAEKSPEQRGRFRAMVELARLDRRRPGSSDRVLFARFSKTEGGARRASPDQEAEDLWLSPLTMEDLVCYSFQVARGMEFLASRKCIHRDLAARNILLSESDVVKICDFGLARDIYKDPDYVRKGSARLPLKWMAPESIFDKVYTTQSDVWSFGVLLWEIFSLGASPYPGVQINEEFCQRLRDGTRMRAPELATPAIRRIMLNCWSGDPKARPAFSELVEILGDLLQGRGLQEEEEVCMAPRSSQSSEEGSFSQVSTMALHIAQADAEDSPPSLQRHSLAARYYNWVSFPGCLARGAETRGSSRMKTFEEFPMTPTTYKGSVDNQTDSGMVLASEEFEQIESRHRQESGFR
T1 sequence (P35968 807-1356): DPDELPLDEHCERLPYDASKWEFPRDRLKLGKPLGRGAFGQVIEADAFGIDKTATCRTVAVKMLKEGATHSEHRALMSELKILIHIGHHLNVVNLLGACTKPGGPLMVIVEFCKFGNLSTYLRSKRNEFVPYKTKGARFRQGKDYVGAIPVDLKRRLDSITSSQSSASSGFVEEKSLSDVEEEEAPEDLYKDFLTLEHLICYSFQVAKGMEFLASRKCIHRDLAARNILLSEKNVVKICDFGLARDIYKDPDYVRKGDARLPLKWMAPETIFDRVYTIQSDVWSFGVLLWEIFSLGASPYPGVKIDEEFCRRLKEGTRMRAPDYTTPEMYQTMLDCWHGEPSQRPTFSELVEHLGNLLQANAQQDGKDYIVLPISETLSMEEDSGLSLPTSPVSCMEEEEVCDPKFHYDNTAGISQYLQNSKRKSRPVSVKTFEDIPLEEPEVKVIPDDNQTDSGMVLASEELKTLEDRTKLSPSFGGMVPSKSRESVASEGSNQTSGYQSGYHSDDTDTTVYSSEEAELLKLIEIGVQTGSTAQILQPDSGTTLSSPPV
Sequence of c-Kit kinase (P10721 26-976): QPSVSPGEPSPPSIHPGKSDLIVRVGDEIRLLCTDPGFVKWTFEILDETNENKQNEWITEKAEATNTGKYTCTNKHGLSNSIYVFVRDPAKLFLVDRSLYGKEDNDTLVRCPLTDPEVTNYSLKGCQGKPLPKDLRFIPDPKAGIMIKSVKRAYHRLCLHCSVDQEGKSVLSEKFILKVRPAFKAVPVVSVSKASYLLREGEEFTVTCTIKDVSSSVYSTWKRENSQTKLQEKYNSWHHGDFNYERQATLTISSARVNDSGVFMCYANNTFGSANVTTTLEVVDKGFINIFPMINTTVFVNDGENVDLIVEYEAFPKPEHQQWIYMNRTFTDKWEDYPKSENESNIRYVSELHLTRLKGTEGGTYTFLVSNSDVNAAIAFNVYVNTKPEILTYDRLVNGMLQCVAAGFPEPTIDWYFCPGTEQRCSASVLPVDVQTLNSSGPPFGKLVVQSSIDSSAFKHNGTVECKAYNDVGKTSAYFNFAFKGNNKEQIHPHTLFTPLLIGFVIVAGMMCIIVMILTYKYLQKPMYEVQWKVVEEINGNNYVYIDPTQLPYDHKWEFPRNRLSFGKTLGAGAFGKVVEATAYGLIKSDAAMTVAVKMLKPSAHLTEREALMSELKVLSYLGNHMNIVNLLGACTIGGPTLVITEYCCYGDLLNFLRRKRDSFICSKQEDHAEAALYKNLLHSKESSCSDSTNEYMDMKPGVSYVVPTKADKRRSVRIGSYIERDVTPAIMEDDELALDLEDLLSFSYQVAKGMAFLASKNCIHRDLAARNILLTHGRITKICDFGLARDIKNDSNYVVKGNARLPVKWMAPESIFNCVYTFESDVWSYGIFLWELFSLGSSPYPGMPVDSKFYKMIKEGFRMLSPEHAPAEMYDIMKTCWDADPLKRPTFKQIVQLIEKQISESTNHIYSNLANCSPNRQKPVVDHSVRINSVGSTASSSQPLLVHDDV
T3 sequence (P08581 1011-1343 limits assumed): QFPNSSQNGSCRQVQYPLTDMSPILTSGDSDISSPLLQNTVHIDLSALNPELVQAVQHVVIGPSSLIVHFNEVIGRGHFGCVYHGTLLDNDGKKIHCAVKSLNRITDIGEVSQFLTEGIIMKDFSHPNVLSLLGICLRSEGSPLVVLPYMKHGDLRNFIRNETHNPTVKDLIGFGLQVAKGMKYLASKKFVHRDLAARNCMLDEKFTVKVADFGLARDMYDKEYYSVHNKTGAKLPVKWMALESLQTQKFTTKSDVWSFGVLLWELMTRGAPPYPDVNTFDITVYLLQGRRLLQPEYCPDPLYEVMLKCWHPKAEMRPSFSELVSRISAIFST

For orientation: IC50 means the concentration that gives 50% inhibition. In the case of `CCNC(=O)C(=O)Nc1ccc(Oc2ccnc3cc(OCC4CCNCC4)c(OC)cc23)c(F)c1` [Example 293, N-ethyl-N′-[3-fluoro-4-({6-(methyloxy)-7-[(piperidin-4-ylmethyl)oxy]quinolin-4-yl}oxy)phenyl]ethanediamide], the IC50 in assay [1] is 50 to 500 nM; in assay [2], 50 to 500 nM; in assay [3], 50 to 500 nM; in assay [4], < 50 nM; in assay [5], 50 to 500 nM.

As to `COc1cc2nccc(Oc3ccc(NC(=O)C4(C(=O)Nc5ccc(F)cc5)CC4)cc3F)c2cc1O` [Example 330, N-(3-fluoro-4-{[6-hydroxy-7-(methyloxy)quinolin-4-yl]oxy}phenyl)-N′-(4-fluorophenyl)cyclopropane-1,1-dicarboxamide], the IC50 in assay [1], in assay [2], in assay [3], in assay [4] and in assay [5] was < 50 nM throughout.

Take `COc1cc2c(Oc3ccc(NC(=O)C4(C(=O)Nc5ccc(F)cc5)CC4)cc3F)ccnc2cc1OCC1CCN(C)CC1` [Example 334, N-{3-fluoro-4-[(6-(methyloxy)-7-{[(1-methylpiperidin-4-yl)methyl]oxy}quinolin-4-yl)oxy]phenyl}-N′-(4-fluorophenyl)cyclopropane-1,1-dicarboxamide]: the IC50 in assay [1], in assay [2], in assay [3], in assay [4] and in assay [5] was < 50 nM throughout.

Regarding `COc1cc2c(Oc3ccc(NC(=O)C4(C(=O)Nc5ccc(F)cc5)CC4)c(C)n3)ccnc2cc1OCCCN1CCOCC1` [Example 318, N-(4-fluorophenyl)-N′-[2-methyl-6-({6-(methyloxy)-7-[(3-morpholin-4-ylpropyl)oxy]quinolin-4-yl}oxy)pyridin-3-yl]cyclopropane-1,1-dicarboxamide], the IC50 in assay [1] is < 50 nM; in assay [2] it was 50 to 500 nM; in assay [3] it was 50 to 500 nM; in assay [4] it was < 50 nM; in assay [5], 50 to 500 nM.

Consider `COc1cc2c(Oc3ccc(NC(=O)C(=O)NCc4ccccc4Cl)cc3F)ccnc2cc1OCC1CCNCC1` [Example 245, N-[(2-chlorophenyl)methyl]-N′-[3-fluoro-4-({6-(methyloxy)-7-[(piperidin-4-ylmethyl)oxy]quinolin-4-yl}oxy)phenyl]ethanediamide], for which the IC50 in assay [1] (setting [6]), in assay [2] (setting [6]), in assay [3] (setting [6]), in assay [4] (setting [6]) and in assay [5] (setting [6]) was < 50 nM in each case.

Turning to `COc1cc2nccc(Oc3nc(C)c(NC(=O)C4(C(=O)Nc5ccc(F)cc5)CC4)cc3Cl)c2cc1OC` [Example 320, N-(6-{[6,7-bis(methyloxy)quinolin-4-yl]oxy}-5-chloro-2-methylpyridin-3-yl)-N′-(4-fluorophenyl)cyclopropane-1,1-dicarboxamide], the IC50 is 500 to 5000 nM in assay [1]; 500 to 5000 nM in assay [2]; 50 to 500 nM in assay [3]; < 50 nM in assay [4]; 500 to 5000 nM in assay [5].

With `COc1cc2nccc(Oc3ccc(NC(=O)C4(C(=O)Nc5ccc(F)cc5)CC4)c(C)c3)c2cc1OC` [Example 317, N-(4-{[6,7-bis(methyloxy)quinolin-4-yl]oxy}-2-methylphenyl)-N′-(4-fluorophenyl)cyclopropane-1,1-dicarboxamide], the IC50 in assay [1] was < 50 nM; in assay [2], < 50 nM; in assay [3], 500 to 5000 nM; in assay [4] it was < 50 nM; in assay [5], < 50 nM.

Regarding `COc1cc2c(Oc3ccc(NC(=O)C(=O)NCCc4ccccc4)cc3F)ccnc2cc1OCC1CN(C)C1` [Example 250, N-(3-fluoro-4-{[7-{[(1-methylazetidin-3-yl)methyl]oxy}-6-(methyloxy)quinolin-4-yl]oxy}phenyl)-N′-(2-phenylethyl)ethanediamide], the half-maximal inhibitory concentration (IC50) in assay [1] (setting [6]), in assay [2] (setting [6]), in assay [3] (setting [6]), in assay [4] (setting [6]) and in assay [5] (setting [6]) was < 50 nM in each case.

For `COc1cc2c(Oc3ccc(NC(=O)C4(C(=O)Nc5ccc(F)cc5)CC4)cc3F)ncnc2cc1OCCCN1CCOCC1` [Example 315, N-[3-fluoro-4-({6-(methyloxy)-7-[(3-morpholin-4-ylpropyl)oxy]quinazolin-4-yl}oxy)phenyl]-N′-(4-fluorophenyl)cyclopropane-1,1-dicarboxamide], the IC50 in assay [1], in assay [2], in assay [3], in assay [4] and in assay [5] was < 50 nM in each case.

For the molecule `CCN1CCC(COc2cc3nccc(Oc4ccc(NC(=O)C(=O)N5CCOC(c6ccccc6)C5)cc4F)c3cc2OC)CC1` (stereo not shown) [Example 231, N-(4-{[7-{[(1-ethylpiperidin-4-yl)methyl]oxy}-6-(methyloxy)quinolin-4-yl]oxy}-3-fluorophenyl)-2-oxo-2-(2-phenylmorpholin-4-yl)acetamide], the IC50 was 50 to 500 nM in assay [1] (setting [6]); 50 to 500 nM in assay [2] (setting [6]); 50 to 500 nM in assay [3] (setting [6]); < 50 nM in assay [4] (setting [6]); 50 to 500 nM in assay [5] (setting [6]).

As for `COc1cc2c(Oc3ccc(NC(=O)C(=O)N4CCC(Cc5ccccc5)CC4)cc3F)ccnc2cc1OCC1CCNCC1` [Example 287, N-[3-fluoro-4-({6-(methyloxy)-7-[(piperidin-4-ylmethyl)oxy]quinolin-4-yl}oxy)phenyl]-2-oxo-2-[4-(phenylmethyl)piperidin-1-yl]acetamide], the IC50 in assay [1] was < 50 nM; in assay [2] it was 50 to 500 nM; in assay [3], < 50 nM; in assay [4], < 50 nM; in assay [5], 50 to 500 nM.

As for `COc1cc2c(Oc3ccc(NC(=O)C4(C(=O)Nc5ccc(F)cc5)CCC4)cc3F)ccnc2cc1OCCCN1CCCCC1` [Example 314, N-[3-fluoro-4-({6-(methyloxy)-7-[(3-piperidin-1-ylpropyl)oxy]quinolin-4-yl}oxy)phenyl]-N′-(4-fluorophenyl)cyclobutane-1,1-dicarboxamide], the IC50 in assay [1] is < 50 nM; in assay [2] it was < 50 nM; in assay [3], 50 to 500 nM; in assay [4], < 50 nM; in assay [5], < 50 nM.

As for `COc1cc2c(Oc3ccc(NC(=O)C(=O)NCc4ccc(OC(F)(F)F)cc4)cc3F)ccnc2cc1OCC1CCNCC1` [Example 246, N-[3-fluoro-4-({6-(methyloxy)-7-[(piperidin-4-ylmethyl)oxy]quinolin-4-yl}oxy)phenyl]-N′-({4-[(trifluoromethyl)oxy]phenyl}methyl)ethanediamide], the IC50 in assay [1] (setting [6]) is 50 to 500 nM; in assay [2] (setting [6]) it was 50 to 500 nM; in assay [3] (setting [6]), 50 to 500 nM; in assay [4] (setting [6]), < 50 nM; in assay [5] (setting [6]), 50 to 500 nM.

On to `COc1cc2c(Oc3ccc(NC(=O)C(=O)NC4CCCC4)cc3F)ccnc2cc1OCC1CCNCC1` [Example 220, N-cyclopentyl-N′-[3-fluoro-4-({6-(methyloxy)-7-[(piperidin-4-ylmethyl)oxy]quinolin-4-yl}oxy)phenyl]ethanediamide], for which the IC50 in assay [1] (setting [6]) is 50 to 500 nM; in assay [2] (setting [6]) it was 50 to 500 nM; in assay [3] (setting [6]), 50 to 500 nM; in assay [4] (setting [6]), < 50 nM; in assay [5] (setting [6]), 50 to 500 nM.

Regarding `COc1cc2c(Oc3ccc(NC(=O)C(=O)NC(C)c4ccc(F)cc4)cc3F)ccnc2cc1OCC1CCNCC1` (stereo not shown) [Example 283, N-[3-fluoro-4-({6-(methyloxy)-7-[(piperidin-4-ylmethyl)oxy]quinolin-4-yl}oxy)phenyl]-N′-[1-(4-fluorophenyl)ethyl]ethanediamide], the IC50 is < 50 nM in assay [1]; 50 to 500 nM in assay [2]; < 50 nM in assay [3]; < 50 nM in assay [4]; 50 to 500 nM in assay [5].

Take `COc1cc2c(Oc3ncc(NC(=O)CC(=O)Nc4ccc(F)cc4)cc3Cl)ccnc2cc1OCCCN1CCOCC1` [Example 266, N-[5-chloro-6-({6-(methyloxy)-7-[(3-morpholin-4-ylpropyl)oxy]quinolin-4-yl}oxy)pyridin-3-yl]-N′-(4-fluorophenyl)propanediamide]: the IC50 in assay [1] (setting [6]) is 50 to 500 nM; in assay [2] (setting [6]) it was 50 to 500 nM; in assay [3] (setting [6]) it was < 50 nM; in assay [4] (setting [6]), < 50 nM; in assay [5] (setting [6]), 50 to 500 nM.

As to `COc1cc2c(Oc3ccc(NC(=O)C(=O)NCCc4ccccc4)cc3F)ncnc2cc1OCC1C[C@H]2CNC[C@H]2C1` (stereo partly drawn) [Example 285, N-{3-fluoro-4-[(6-(methyloxy)-7-{[(3aR,6aS)-octahydrocyclopenta[c]pyrrol-5-ylmethyl]oxy}quinazolin-4-yl)oxy]phenyl}-N′-(2-phenylethyl)ethanediamide], the IC50 in assay [1], in assay [2], in assay [3], in assay [4] and in assay [5] was < 50 nM throughout.
